Reference: PubChem BioAssay (NCI)
“And” between values parts separate entries of the source, which are not always exact repeats. Identical values can stand only once.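 Briefly, cells in 96-well plates were exposed to five compound concentrations for 48 h, and endpoints were estimated by linear interpolation. GI50 is the concentration that inhibits growth by half. TGI denotes the concentration required for complete inhibition of growth.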

Assays:
Experiment in all cases: NCI-60 cell line screen, 48 h
SN12C renal = system: SN12C renal
A498 renal = system: A498 renal
HT29 colon = system: HT29 colon
SR leukemia = system: SR leukemia
COLO 205 colon = system: COLO 205 colon
NCI/ADR-RES ovarian = system: NCI/ADR-RES ovarian
SK-MEL-2 melanoma = system: SK-MEL-2 melanoma
HOP-62 NSCLC = system: HOP-62 NSCLC
T-47D breast = system: T-47D breast
BT-549 breast = system: BT-549 breast

SMILES: COc1ccc(/C=C2\NC(=S)N(CN3CCOCC3)C2=O)cc1
- TGI (SN12C renal): > 100 µM
- TGI (A498 renal): > 100 µM
- TGI (HT29 colon): > 100 µM
- TGI (SR leukemia): > 100 µM
- TGI (COLO 205 colon): > 100 µM
- TGI (NCI/ADR-RES ovarian): > 100 µM
- TGI (SK-MEL-2 melanoma): > 100 µM
- TGI (HOP-62 NSCLC): > 100 µM

SMILES: COC(=O)CCC(=O)c1ccc2c(c1)CC1(Cc3ccccc3C1)C2
- TGI (SN12C renal): > 100 µM
- TGI (A498 renal): > 100 µM
- TGI (HT29 colon): 43.9 µM
- TGI (T-47D breast): > 100 µM
- TGI (SR leukemia): 34 µM
- TGI (COLO 205 colon): 82.3 µM
- TGI (NCI/ADR-RES ovarian): > 100 µM
- TGI (SK-MEL-2 melanoma): > 100 µM
- TGI (HOP-62 NSCLC): > 100 µM

SMILES: O=[N+]([O-])c1cnccc1-n1nnc2ccccc21
- TGI (SN12C renal): 37.7 µM
- TGI (A498 renal): 92.1 µM
- TGI (HT29 colon): > 100 µM
- TGI (COLO 205 colon): 72.8 µM
- TGI (NCI/ADR-RES ovarian): 63.4 µM
- TGI (SK-MEL-2 melanoma): 35.8 µM
- TGI (HOP-62 NSCLC): 59.3 µM

SMILES: CN1CCN(C(=S)N(C(=O)c2ccc(Cl)cc2)C2CCCCC2)CC1
- TGI (SN12C renal): > 100 µM
- TGI (HT29 colon): > 100 µM
- TGI (T-47D breast): > 100 µM
- TGI (SR leukemia): > 100 µM
- TGI (COLO 205 colon): > 100 µM
- TGI (SK-MEL-2 melanoma): > 100 µM
- TGI (BT-549 breast): > 100 µM

SMILES: Cc1nc2ccccc2n1Cc1ccc(NC(=S)NC2CCCCC2)cc1
- TGI (SN12C renal): > 100 µM
- TGI (A498 renal): > 100 µM
- TGI (HT29 colon): > 100 µM
- TGI (T-47D breast): > 82.3 µM
- TGI (COLO 205 colon): > 100 µM
- TGI (NCI/ADR-RES ovarian): > 100 µM
- TGI (SK-MEL-2 melanoma): > 100 µM
- TGI (HOP-62 NSCLC): > 100 µM
- TGI (BT-549 breast): > 100 µM

SMILES: NCCCCNCCCNC(=O)c1csc(-c2nc(CCN)sc2Cl)n1
- TGI (SN12C renal): > 100 µM
- TGI (A498 renal): > 100 µM
- TGI (HT29 colon): > 100 µM
- TGI (T-47D breast): > 100 µM
- TGI (COLO 205 colon): > 100 µM
- TGI (NCI/ADR-RES ovarian): > 100 µM
- TGI (HOP-62 NSCLC): > 100 µM
- TGI (BT-549 breast): > 100 µM

SMILES: CCCCCCCCC[C@@H]1C[C@H](O)[C@H](Cc2ccccc2)N1C(=O)OC(C)(C)C
- TGI (SN12C renal): 31 µM
- TGI (A498 renal): 33.7 µM
- TGI (HT29 colon): 31.5 µM
- TGI (SR leukemia): 46.2 µM
- TGI (COLO 205 colon): 31.1 µM
- TGI (SK-MEL-2 melanoma): 30.3 µM
- TGI (HOP-62 NSCLC): 34.9 µM

SMILES: CC(=O)Nc1ccc2cc3c(nc2n1)c1cccnc1n3S(=O)(=O)c1ccccc1
- TGI (SN12C renal): > 100 µM
- TGI (A498 renal): > 100 µM
- TGI (HT29 colon): > 100 µM
- TGI (SR leukemia): > 100 µM
- TGI (COLO 205 colon): > 100 µM
- TGI (NCI/ADR-RES ovarian): > 100 µM
- TGI (SK-MEL-2 melanoma): > 100 µM
- TGI (HOP-62 NSCLC): > 100 µM
- TGI (BT-549 breast): > 100 µM

SMILES: CCN(CC)C(=O)N1CN(c2ccccc2)C2(CCN(CCCC3(c4ccc(F)cc4)OCCO3)CC2)C1=O
- TGI (SN12C renal): 32.8 µM
- TGI (T-47D breast): > 100 µM
- TGI (SR leukemia): 47.5 µM
- TGI (COLO 205 colon): 15.2 µM
- TGI (NCI/ADR-RES ovarian): 46.4 µM
- TGI (SK-MEL-2 melanoma): 33 µM
- TGI (HOP-62 NSCLC): 18.6 µM
- TGI (BT-549 breast): 28.9 µM

SMILES: NC(=O)NC(=O)c1cccc(C(=O)NC(N)=O)n1
- TGI (SN12C renal): > 100 µM
- TGI (A498 renal): > 100 µM
- TGI (HT29 colon): > 100 µM
- TGI (T-47D breast): > 100 µM
- TGI (SR leukemia): > 100 µM
- TGI (NCI/ADR-RES ovarian): > 100 µM
- TGI (SK-MEL-2 melanoma): > 100 µM
- TGI (HOP-62 NSCLC): > 100 µM

SMILES: CCOc1ccnc2c(OC)c(C)c3nc4ccccc4nc3c12
- TGI (SN12C renal): > 100 µM
- TGI (A498 renal): > 100 µM
- TGI (HT29 colon): > 100 µM
- TGI (T-47D breast): 67 µM
- TGI (SR leukemia): > 100 µM
- TGI (COLO 205 colon): > 100 µM
- TGI (NCI/ADR-RES ovarian): > 100 µM
- TGI (SK-MEL-2 melanoma): > 100 µM
- TGI (HOP-62 NSCLC): > 100 µM

SMILES: COC(=O)Cc1c(-c2c(CC(=O)OC)c3ccccc3n2C2OC(COC3OC(COC(C)=O)C(OC(C)=O)C(OC(C)=O)C3OC(C)=O)C(O)C(O)C2O)[nH]c2ccccc12 (centres undefined)
- TGI (SN12C renal): > 100 µM
- TGI (A498 renal): > 100 µM
- TGI (HT29 colon): > 100 µM
- TGI (T-47D breast): > 100 µM
- TGI (SR leukemia): > 100 µM
- TGI (COLO 205 colon): > 100 µM
- TGI (SK-MEL-2 melanoma): 64.7 µM
- TGI (HOP-62 NSCLC): 70.9 µM
- TGI (BT-549 breast): > 100 µM

SMILES: COc1cc(C2C(Cl)C(=O)N2NC(=O)c2ccccc2O)cc(OC)c1OC (centres undefined)
- TGI (HT29 colon): 9.06 µM
- TGI (SR leukemia): > 10 µM
- TGI (BT-549 breast): > 10 µM

SMILES: CNC(=S)c1nnsc1N
- TGI (SN12C renal): > 100 µM
- TGI (A498 renal): > 100 µM
- TGI (T-47D breast): > 100 µM
- TGI (COLO 205 colon): > 100 µM
- TGI (NCI/ADR-RES ovarian): > 100 µM
- TGI (SK-MEL-2 melanoma): > 100 µM
- TGI (HOP-62 NSCLC): > 100 µM
- TGI (BT-549 breast): > 100 µM

SMILES: c1ccc2c(CCNC3=NCCO3)cccc2c1
- TGI (A498 renal): > 10 µM
- TGI (HT29 colon): > 10 µM
- TGI (T-47D breast): > 10 µM
- TGI (SR leukemia): > 10 µM
- TGI (COLO 205 colon): > 10 µM
- TGI (NCI/ADR-RES ovarian): > 10 µM
- TGI (SK-MEL-2 melanoma): > 10 µM
- TGI (HOP-62 NSCLC): > 10 µM

SMILES: O=C(CCCN1CCC(Nc2ccc(F)cc2)(c2nnnn2C2CCCCC2)CC1)c1ccc(F)cc1
- TGI (SN12C renal): > 100 µM
- TGI (A498 renal): 12.5 µM
- TGI (HT29 colon): > 100 µM
- TGI (SR leukemia): > 100 µM
- TGI (COLO 205 colon): 37.1 µM
- TGI (NCI/ADR-RES ovarian): 46.9 µM
- TGI (SK-MEL-2 melanoma): 40.7 µM
- TGI (HOP-62 NSCLC): 33.6 µM
- TGI (BT-549 breast): 33.1 µM

SMILES: O=C(CN1CCOCC1)c1ccc2c(c1)oc(=O)n2CCN1CCCCC1
- TGI (SN12C renal): > 100 µM
- TGI (A498 renal): > 100 µM
- TGI (HT29 colon): > 100 µM
- TGI (SR leukemia): > 100 µM
- TGI (COLO 205 colon): > 100 µM
- TGI (NCI/ADR-RES ovarian): > 100 µM
- TGI (SK-MEL-2 melanoma): > 100 µM
- TGI (HOP-62 NSCLC): > 100 µM
- TGI (BT-549 breast): > 100 µM

SMILES: COC1=C2C[C@](OC)(C#CC=CC#CC2O)CC1(C)C (some centres undefined)
- TGI (SN12C renal): > 100 µM
- TGI (HT29 colon): > 100 µM
- TGI (T-47D breast): > 100 µM
- TGI (SR leukemia): > 100 µM
- TGI (COLO 205 colon): > 100 µM
- TGI (NCI/ADR-RES ovarian): > 100 µM
- TGI (HOP-62 NSCLC): > 100 µM
- TGI (BT-549 breast): > 100 µM

SMILES: Cc1ccc(S(=O)(=O)N/N=C2/C3CC4CCC2C4C3)cc1 (centres undefined)
- TGI (SN12C renal): > 100 µM
- TGI (A498 renal): > 100 µM
- TGI (HT29 colon): > 100 µM
- TGI (T-47D breast): > 100 µM
- TGI (COLO 205 colon): > 100 µM
- TGI (NCI/ADR-RES ovarian): > 100 µM
- TGI (HOP-62 NSCLC): > 100 µM
- TGI (BT-549 breast): > 100 µM

SMILES: C=CCOC1=C(OC(C)=O)C(C2COC(C)(C)O2)OC1=O (centres undefined)
- TGI (SN12C renal): 70.8 µM
- TGI (A498 renal): > 100 µM
- TGI (HT29 colon): 38.4 µM
- TGI (T-47D breast): 39.7 µM
- TGI (COLO 205 colon): 36.9 µM
- TGI (NCI/ADR-RES ovarian): > 100 µM
- TGI (SK-MEL-2 melanoma): > 100 µM
- TGI (HOP-62 NSCLC): > 100 µM
- TGI (BT-549 breast): 60.1 µM

SMILES: C[C@H](N)C(=O)Nc1ccc(-c2nc3ccccc3s2)cc1Cl
- TGI (SN12C renal): 30 µM
- TGI (HT29 colon): 32.8 µM
- TGI (SR leukemia): 13.9 µM
- TGI (COLO 205 colon): 26.4 µM
- TGI (NCI/ADR-RES ovarian): > 100 µM
- TGI (SK-MEL-2 melanoma): 30.5 µM
- TGI (HOP-62 NSCLC): 26 µM
- TGI (BT-549 breast): 36 µM

SMILES: CC(C)[Si](CC1=CCCCC12C(=O)N(COCC[Si](C)(C)C)c1ccccc12)(C(C)C)C(C)C (centres undefined)
- TGI (A498 renal): > 100 µM
- TGI (HT29 colon): > 100 µM
- TGI (T-47D breast): 96.9 µM
- TGI (SR leukemia): > 100 µM
- TGI (COLO 205 colon): > 100 µM
- TGI (NCI/ADR-RES ovarian): > 100 µM
- TGI (SK-MEL-2 melanoma): > 100 µM
- TGI (HOP-62 NSCLC): > 100 µM

SMILES: COc1ccc(-c2c(C#N)c(N)n(C3OC(COC(C)=O)C(OC(C)=O)C(OC(C)=O)C3OC(C)=O)c(=S)c2C#N)cc1 (centres undefined)
- TGI (SN12C renal): > 100 µM
- TGI (A498 renal): 91.4 µM and 63.5 µM
- GI50 (HT29 colon): 84.7 µM and 36.2 µM
- TGI (HT29 colon): > 100 µM
- TGI (T-47D breast): > 100 µM and 46.5 µM
- GI50 (COLO 205 colon): > 100 µM and 21.2 µM
- TGI (COLO 205 colon): > 100 µM and 43.2 µM
- TGI (NCI/ADR-RES ovarian): > 100 µM
- TGI (SK-MEL-2 melanoma): > 100 µM and 39.8 µM
- TGI (HOP-62 NSCLC): 89.1 µM and 51.6 µM
- TGI (BT-549 breast): 89.3 µM and 72 µM

SMILES: Cc1cc(NS(=O)(=O)c2ccc(N=Nc3c(Nc4ccccc4)nn(-c4ccc(S(=O)(=O)Nc5ccncn5)cc4)c3C)cc2)no1
- TGI (SN12C renal): > 100 µM
- TGI (HT29 colon): > 100 µM
- TGI (T-47D breast): > 100 µM
- TGI (COLO 205 colon): > 100 µM
- TGI (NCI/ADR-RES ovarian): > 100 µM
- TGI (SK-MEL-2 melanoma): > 100 µM
- TGI (HOP-62 NSCLC): > 100 µM
